In patent publication US8969295B2, “Identifying and modulating molecular pathways that mediate nervous system plasticity” (Massachusetts Institute of Technology, priority 2006, dated 2015):
Entries after “also recorded” stand apart in the source; their conditions may differ.

Columns and labels:
[1] = in vivo; cited from earlier work
[2] = tested on: visual cortex gene expression; test: Microarray analysis of MD+IGF1 animals versus MD animals, all genes; assay type: in vivo, mouse; conditions: 4 days MD + daily IP IGF1, microarray
Procedure: (§1) In additional experiments in which the effects of short-term (4 days from P23-27) MD were investigated, as well the effects of IGF1 infusion concurrent with MD, a total of four experimental groups were analyzed: a new group of control animals (3 samples), the ipsilateral and the contralateral cortex of mice monocularly deprived for four days (3 samples for the ipsilateral and 3 samples for the contralateral cortex), the contralateral cortex of mice that were monocularly deprived for four days and were injected IP daily with IGF1 solution (3 samples). Tissue was removed and the RNA extracted as described above, and labeled RNA was hybridized to the Affymetrix mouse genome 430.2 chip, which contains oligonucleotides that correspond to a total of 42,000 probes targeting genes and ESTs.
(§2) A method for the Significance Analysis of Microarrays to assess changes in gene expression was used^31, and the method was implemented in MATLAB (The Mathworks, Natick, Mass.). The method allows the comparison of the expression level of each gene under two conditions (e.g., MD vs. control; or DR vs. control). […] Correlations between replicates were calculated as correlation coefficients (c.c.) for all conditions: control (c.c.=0.99±0.002), MD 16 days (c.c.=0.9±0.05), MD 4 days contralateral (c.c.=0.99±0.001), MD 4 days ipsilateral (0.99±0.005), MD 4 days contralateral plus IGF1 (c.c.=0.99±0.004). […]

IGFBP5 [3] = test: Microarray analysis of MD+IGF1 animals versus MD animals; assay type: in vivo, mouse; conditions: 4 days MD + daily IP IGF1, contralateral cortex; P<0.01
Procedure: as §1, §2

PI3K = test: as above; assay type: in vivo, mouse; conditions: 4 days MD + daily IP IGF1, contralateral cortex; P<0.01
Procedure: as §1, §2

ischemia in the CNS = conditions: intra-peritoneal administration; cited from earlier work
phosphorylated-Akt = test: Immunostaining in V1 after MD with concurrent IGF1; assay type: in vivo, mouse; conditions: short-term (4 days) MD + daily IP IGF1
Procedure: as §1
(§3) Mice were anesthetized and transcardially perfused with a solution of 4% paraformaldehyde. The appropriate brain hemispheres were removed and equilibrated in 30% sucrose in PBS. Coronal sections containing visual cortex were cut using a freezing microtome. Immunohistochemistry for GluR1 (1:500, Upstate), IGFBP5 (1:500, USBiological), CaMK2alpha (1:500, Sigma), PhosphoCREB (1:500, Cell Signaling), activated Stat1 (1:500, Abcam), parvalbumin (1:1000, Chemicon), calretinin (1:500, Chemicon), somatostatin (1:300, Chemicon), neuropeptideY (1:400, Chemicon), synapsin 1 (1:500, Chemicon), IGF1 (1:250, Chemicon), GAD 67 (1:400, Chemicon), IGF1R (1:500, Upstate), PI3K—catalytic subunit 110 (1:400, Upstate), phosphorylated-Akt (1:250, Cell Signaling), was carried out as described elsewhere^82,83. For each staining, analysis was repeated in parallel for control and deprived animals. Experiments were carried out at least on two animals for each group and repeated twice. The intensity of staining in sections from control and deprived animals was evaluated with ImageJ software (rsb.info.nih.gov/ij/). Counts of parvalbumin, calretinin, somatostatin and NPY-positive cells were performed as described elsewhere^29.
(§4) For IGF1 treatment, a solution containing GPE, the functional peptide of IGF1, was prepared as described^56: 300 μg of GPE was injected intra-peritoneally daily for the entire period of deprivation. This peptide is referred to as “IGF1” in the Results below.

synapsin 1 = test: Immunostaining in V1 after MD with concurrent IGF1; assay type: in vivo, mouse; conditions: short-term (4 days) MD + daily IP IGF1; P<0.05
Procedure: as §1, §3, §4

IGF1 receptor (IGF1R) = test: Immunostaining in V1 after MD with concurrent IGF1; assay type: in vivo, mouse; conditions: short-term (4 days) MD + daily IP IGF1
Procedure: as §1, §3, §4

IGFBP5 [4] = test: Immunostaining in V1 after MD with concurrent IGF1; assay type: in vivo, mouse; conditions: short-term (4 days) MD + daily IP IGF1, cortex contralateral to deprived eye
Procedure: as §1, §3, §4

[5] = tested on: Phosphatidylinositol 3-Kinase (PI3K); test: Immunostaining in V1 after MD with concurrent IGF1; assay type: in vivo, mouse; conditions: short-term (4 days) MD + daily IP IGF1; P<0.05
Procedure: as §1, §3, §4

binocular portion of V1 = test: Optical imaging of intrinsic signals in V1: ocular dominance after monocular deprivation (MD) with IGF1; assay type: in vivo, mouse
Procedure: For monocular deprivation, animals were anesthetized with avertin (0.016 ml/g) and the eyelids of one eye were sutured (at P20-22 for 7 days for imaging experiments). Before imaging, the suture was removed and the deprived eye re-opened. Only animals in which the deprivation sutures were intact and the condition of the deprived eye appeared healthy were used for the imaging session. For DR animals (aged P27-30), the procedure was the same described above, with the exception that the animals were anesthetized in darkness and not exposed to light until deeply anaesthetized; in these mice only the binocular response was evaluated and compared to that in control animals.
Mice (129/SvEv and C57B1/6) aged P26-30 were anesthetized with urethane (1.5 g/Kg) and chlorprothixene (0.2 mg), as described^84. Skin was excised and the skull exposed over V1. A custom-made attachment was used to fix the head and minimize movements. The cortex was covered with agarose solution (1.5%) and a glass cover slip. During the imaging session the animal's body temperature was kept constant with a heating blanket and the EKG monitored constantly. […]
A temporal high pass filter (135 frames) was employed to remove slow noise components, after which the temporal Fast Fourier Transform (FFT) component at the stimulus frequency ([…]) was calculated pixel by pixel from the whole set of images. […]

PKC = conditions: Nishiyama et al., 2003; cited from earlier work
cGMP = conditions: Leamey et al., 2001; cited from earlier work

Compound: IGF1: GPE, the functional peptide of IGF1 (tripeptide), referred to as IGF1 in the Results of Example 4 (Insulin-like growth factor I; UniProt P05019 49-51, looked up, fragment)
- ability to cross the blood brain barrier [1]: able to cross the blood brain barrier
- genes significantly altered in expression in MD+IGF1 animals compared to MD animals [2]: only a small fraction of genes was significantly altered
- IGFBP5 microarray expression compared to MD alone (IGFBP5 [3]): significantly downregulated
- PI3K microarray expression compared to MD alone (PI3K): upregulated
- effects of ischemia in the CNS (ischemia in the CNS): prevents the effects of ischemia in the CNS
- Expression of phosphorylated-Akt, immunostaining in V1 (phosphorylated-Akt): restored
- level of synapsin expression, immunostaining for synapsin 1 in V1 (synapsin 1): significant increase
- Expression of the IGF1 receptor (IGF1R), immunostaining in V1 (IGF1 receptor (IGF1R)): partially restored
- IGFBP5 immunostaining in V1 (IGFBP5 [4]): no change from normal levels
- PI3K expression, immunostaining in V1 [5]: fully restored
- shift of mean ocular dominance index across animals relative to control (binocular portion of V1; 7 days MD + IGF1 i.p., n=3, P>0.2 vs control): prevented the shift
- ocular dominance shift towards the open eye (ocular dominance distribution of pixels within the binocular zone) (binocular portion of V1; 7 days MD during critical period, 300 μg GPE intra-peritoneally daily for the period of deprivation): prevented the ocular dominance shift towards the open eye; also recorded: prevents the ocular dominance shift

Compound: CN(C)CCCn1cc(C2=C(c3c[nH]c4ccccc34)C(=O)NC2=O)c2ccccc21 [GF109203X]
- Effective doses in slices (PKC): 10 to 100 µM

Compound: O=c1onc2cnc3ccccc3n12 [ODQ]
- effective dose for influencing axon growth (cGMP): about 10 μM
